Data as given in patent US11919901B2 (Syndax Pharmaceuticals, Inc., priority 2021, dated 2024).

Each molecule was assayed on MV4-11 cells (assay: Cell proliferation assay MV4;11 (CellTiter-Glo, 72 hours)). Settings: Homo sapiens; MV4;11 leukemia cell line, 72 hours; read-out: MV4; 11 IC50.
Format: cell-based
Method in brief: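 Luminescent CellTiter-Glo readout after 72 h culture, 37 °C, 5% CO2, expressed relative to vehicle-treated wells, with maximal inhibition taken at the highest dose. MLL-rearranged MV4-11 leukemia cells; final compound range 0.632 to 2000 nM in eight steps.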
CCNS(=O)(=O)N[C@@H]1CC[C@@H](CN2CCC3(CC2)CN(c2ncncc2Oc2ccc(F)cc2C(=O)N(C(C)C)[C@@H]2CCOC2)C3)OC1 [Example 172, 2-((4-(7-(((2S,5R)-5-((N-ethylsulfamoyl)amino)tetrahydro-2H-pyran-2-yl)methyl)-2,7-diazaspiro[3.5]nonan-2-yl)pyrimidin-5-yl)oxy)-5-fluoro-N-isopropyl-N-((R)-tetrahydrofuran-3-yl)benzamide] was tested, and the IC50 was less than 100 nM. CC(C)N(C(=O)c1cc(F)ccc1Oc1cncnc1N1CC2(CCN(C[C@@H]3CC[C@@H](NS(C)(=O)=O)CO3)CC2)C1)[C@H]1CCOC1 [Example 173, 5-Fluoro-N-isopropyl-2-((4-(7-(((2S,5R)-5-(methylsulfonamido)tetrahydro-2H-pyran-2-yl)methyl)-2,7-diazaspiro[3.5]nonan-2-yl)pyrimidin-5-yl)oxy)-N-((S)-tetrahydrofuran-3-yl)benzamide] showed an IC50 of less than 100 nM. CC(C)N(C(=O)c1cc(F)ccc1Oc1cncnc1N1CC2(CCN(C[C@@H]3CC[C@@H](NS(=O)(=O)C(C)C)CO3)CC2)C1)[C@H]1CCOC1 [Example 174, 5-Fluoro-N-isopropyl-2-((4-(7-(((2S,5R)-5-((1-methylethyl)sulfonamido)tetrahydro-2H-pyran-2-yl)methyl)-2,7-diazaspiro[3.5]nonan-2-yl)pyrimidin-5-yl)oxy)-N-((S)-tetrahydrofuran-3-yl)benzamide] gave an IC50 of less than 100 nM. CCN(CC)S(=O)(=O)N[C@@H]1CC[C@@H](CN2CCC3(CC2)CN(c2ncncc2Oc2ccc(F)cc2C(=O)N(C(C)C)[C@H]2CCOC2)C3)OC1 [Example 175, 2-((4-(7-(((2S,5R)-5-((N,N-Diethylsulfamoyl)amino)tetrahydro-2H-pyran-2-yl)methyl)-2,7-diazaspiro[3.5]nonan-2-yl)pyrimidin-5-yl)oxy)-5-fluoro-N-isopropyl-N-((S)-tetrahydrofuran-3-yl)benzamide] gave an IC50 of less than 100 nM. CC(C)N(C(=O)c1cc(F)ccc1Oc1cncnc1N1CC2(CCN(C[C@@H]3CC[C@@H](NS(=O)(=O)C4CC4)CO3)CC2)C1)[C@H]1CCOC1 [Example 176, 2-((4-(7-(((2S,5R)-5-(Cyclopropanesulfonamido)tetrahydro-2H-pyran-2-yl)methyl)-2,7-diazaspiro[3.5]nonan-2-yl)pyrimidin-5-yl)oxy)-5-fluoro-N-isopropyl-N-((S)-tetrahydrofuran-3-yl)benzamide] gave an IC50 of less than 100 nM. In the case of CC(C)N(C(=O)c1cc(F)ccc1Oc1cncnc1N1CC2(CCN(C[C@@H]3CC[C@@H](NS(=O)(=O)N(C)C)CO3)CC2)C1)[C@H]1CCOC1 [Example 177, 2-((4-(7-(((2S,5R)-5-((N,N-Dimethylsulfamoyl)amino)tetrahydro-2H-pyran-2-yl)methyl)-2,7-diazaspiro[3.5]nonan-2-yl)pyrimidin-5-yl)oxy)-5-fluoro-N-isopropyl-N-((S)-tetrahydrofuran-3-yl)benzamide], the IC50 is reported as less than 100 nM. With CC(C)N(C(=O)c1cc(F)ccc1Oc1cncnc1N1CC2(CCN(C[C@@H]3CC[C@@H](NS(=O)(=O)N4CCCC4)CO3)CC2)C1)[C@H]1CCOC1 [Example 178, 5-Fluoro-N-isopropyl-2-((4-(7-(((2S,5R)-5-(pyrrolidine-1-sulfonamido)tetrahydro-2H-pyran-2-yl)methyl)-2,7-diazaspiro[3.5]nonan-2-yl)pyrimidin-5-yl)oxy)-N-((S)-tetrahydrofuran-3-yl)benzamide] the IC50 was less than 100 nM. For CCN(C)S(=O)(=O)N[C@@H]1CC[C@@H](CN2CCC3(CC2)CN(c2ncncc2Oc2ccc(F)cc2C(=O)N(C(C)C)[C@H]2CCOC2)C3)OC1 [Example 179, 2-((4-(7-(((2S,5R)-5-((N-Ethyl-N-methylsulfamoyl)amino)tetrahydro-2H-pyran-2-yl)methyl)-2,7-diazaspiro[3.5]nonan-2-yl)pyrimidin-5-yl)oxy)-5-fluoro-N-isopropyl-N-((S)-tetrahydrofuran-3-yl)benzamide], the IC50 was less than 100 nM. Work on CCNS(=O)(=O)N[C@@H]1CC[C@@H](CN2CCC3(CC2)CN(c2ncncc2Oc2ccc(F)cc2C(=O)N(C(C)C)[C@H]2CCOC2)C3)OC1 [Example 180, 2-((4-(7-(((2S,5R)-5-((N-Ethylsulfamoyl)amino)tetrahydro-2H-pyran-2-yl)methyl)-2,7-diazaspiro[3.5]nonan-2-yl)pyrimidin-5-yl)oxy)-5-fluoro-N-isopropyl-N-((S)-tetrahydrofuran-3-yl)benzamide] yielded an IC50 of less than 100 nM. Work on CC(C)N(CC#N)C(=O)c1cc(F)ccc1Oc1cncnc1N1CC2(CCN(C[C@@H]3CC[C@@H](NS(=O)(=O)N(C)C)CO3)CC2)C1 [Example 181, N-(Cyanomethyl)-2-((4-(7-(((2S,5R)-5-((N,N-dimethylsulfamoyl)amino)tetrahydro-2H-pyran-2-yl)methyl)-2,7-diazaspiro[3.5]nonan-2-yl)pyrimidin-5-yl)oxy)-5-fluoro-N-isopropylbenzamide] yielded an IC50 of less than 100 nM. In the case of CC(C)N(CC#N)C(=O)c1cc(F)ccc1Oc1cncnc1N1CC2(CCN(C[C@@H]3CC[C@@H](NS(=O)(=O)N4CCC4)CO3)CC2)C1 [Example 182, 2-((4-(7-(((2S,5R)-5-(Azetidine-1-sulfonamido)tetrahydro-2H-pyran-2-yl)methyl)-2,7-diazaspiro[3.5]nonan-2-yl)pyrimidin-5-yl)oxy)-N-(cyanomethyl)-5-fluoro-N-isopropylbenzamide], the IC50 is reported as less than 100 nM. For CC(C)N(CCC#N)C(=O)c1cc(F)ccc1Oc1cncnc1N1CC2(CCN(C[C@@H]3CC[C@@H](NS(=O)(=O)N(C)C)CO3)CC2)C1 [Example 183, N-(2-Cyanoethyl)-2-((4-(7-(((2S,5R)-5-((N,N-dimethylsulfamoyl)amino)tetrahydro-2H-pyran-2-yl)methyl)-2,7-diazaspiro[3.5]nonan-2-yl)pyrimidin-5-yl)oxy)-5-fluoro-N-isopropylbenzamide], the IC50 was less than 100 nM. Molecule CC(C)N(CCC#N)C(=O)c1cc(F)ccc1Oc1cncnc1N1CC2(CCN(C[C@@H]3CC[C@@H](NS(=O)(=O)N4CCC4)CO3)CC2)C1 [Example 184, 2-((4-(7-(((2S,5R)-5-(Azetidine-1-sulfonamido)tetrahydro-2H-pyran-2-yl)methyl)-2,7-diazaspiro[3.5]nonan-2-yl)pyrimidin-5-yl)oxy)-N-(2-cyanoethyl)-5-fluoro-N-isopropylbenzamide] has an IC50 of less than 100 nM. For CCS(=O)(=O)N[C@@H]1CC[C@@H](CN2CCC3(CC2)CN(c2ncnnc2Oc2ccc(F)cc2C(=O)N(CC(F)F)C(C)C)C3)OC1 [Example 185, N-(2,2-Difluoroethyl)-2-((5-(7-(((2S,5R)-5-(ethylsulfonamido)tetrahydro-2H-pyran-2-yl)methyl)-2,7-diazaspiro[3.5]nonan-2-yl)-1,2,4-triazin-6-yl)oxy)-5-fluoro-N-isopropylbenzamide], the IC50 was less than 100 nM. For CC(C)N(CC(F)F)C(=O)c1cc(F)ccc1Oc1nncnc1N1CC2(CCN(C[C@@H]3CC[C@@H](NS(=O)(=O)C4CC4)CO3)CC2)C1 [Example 186, 2-((5-(7-(((2S,5R)-5-(Cyclopropanesulfonamido)tetrahydro-2H-pyran-2-yl)methyl)-2,7-diazaspiro[3.5]nonan-2-yl)-1,2,4-triazin-6-yl)oxy)-N-(2,2-difluoroethyl)-5-fluoro-N-isopropylbenzamide], the IC50 was less than 100 nM. With CCNS(=O)(=O)N[C@@H]1CC[C@@H](CN2CCC3(CC2)CN(c2ncnnc2Oc2ccc(F)cc2C(=O)N(CC(F)F)C(C)C)C3)OC1 [Example 188, N-(2,2-Difluoroethyl)-2-((5-(7-(((2S,5R)-5-((N-ethylsulfamoyl)amino)tetrahydro-2H-pyran-2-yl)methyl)-2,7-diazaspiro[3.5]nonan-2-yl)-1,2,4-triazin-6-yl)oxy)-5-fluoro-N-isopropylbenzamide] the IC50 was less than 100 nM. CC(C)N(CC(F)F)C(=O)c1cc(F)ccc1Oc1nncnc1N1CC2(CCN(C[C@@H]3CC[C@@H](NS(=O)(=O)N4CCC4)CO3)CC2)C1 [Example 189, 2-((5-(7-(((2S,5R)-5-(Azetidine-1-sulfonamido)tetrahydro-2H-pyran-2-yl)methyl)-2,7-diazaspiro[3.5]nonan-2-yl)-1,2,4-triazin-6-yl)oxy)-N-(2,2-difluoroethyl)-5-fluoro-N-isopropylbenzamide] showed an IC50 of less than 100 nM. With CCS(=O)(=O)N[C@@H]1CC[C@@H](CN2CCC3(CC2)CN(c2ncnnc2Oc2ccc(F)cc2C(=O)N(CC(F)(F)F)C(C)C)C3)OC1 [Example 190, 2-((5-(7-(((2S,5R)-5-(Ethylsulfonamido)tetrahydro-2H-pyran-2-yl)methyl)-2,7-diazaspiro[3.5]nonan-2-yl)-1,2,4-triazin-6-yl)oxy)-5-fluoro-N-isopropyl-N-(2,2,2-trifluoroethyl)benzamide] the IC50 was less than 100 nM. Work on CC(C)N(CC(F)(F)F)C(=O)c1cc(F)ccc1Oc1nncnc1N1CC2(CCN(C[C@@H]3CC[C@@H](NS(=O)(=O)C4CC4)CO3)CC2)C1 [Example 191, 2-((5-(7-(((2S,5R)-5-(Cyclopropanesulfonamido)tetrahydro-2H-pyran-2-yl)methyl)-2,7-diazaspiro[3.5]nonan-2-yl)-1,2,4-triazin-6-yl)oxy)-5-fluoro-N-isopropyl-N-(2,2,2-trifluoroethyl)benzamide] yielded an IC50 of less than 100 nM. Work on CCS(=O)(=O)N[C@@H]1CC[C@@H](CN2CCC3(CC2)CN(c2ncnnc2Oc2ccc(F)cc2C(=O)N(C(C)C)C(C)C)C3)OC1 [Example 195, 2-((5-(7-(((2S,5R)-5-(Ethylsulfonamido)tetrahydro-2H-pyran-2-yl)methyl)-2,7-diazaspiro[3.5]nonan-2-yl)-1,2,4-triazin-6-yl)oxy)-5-fluoro-N,N-diisopropylbenzamide] yielded an IC50 of less than 100 nM. In the case of CC(C)N(C(=O)c1cc(F)ccc1Oc1nncnc1N1CC2(CCN(C[C@@H]3CC[C@@H](NS(=O)(=O)C4CC4)CO3)CC2)C1)C(C)C [Example 196, 2-((5-(7-(((2S,5R)-5-(Cyclopropanesulfonamido)tetrahydro-2H-pyran-2-yl)methyl)-2,7-diazaspiro[3.5]nonan-2-yl)-1,2,4-triazin-6-yl)oxy)-5-fluoro-N,N-diisopropylbenzamide], the IC50 is reported as less than 100 nM.
